IC50 data for 15 compounds are collected here from ChEMBL document CHEMBL4043305, “Structure-Activity Relationship Study of Cyclic Pentapeptide Ligands for Atypical Chemokine Receptor 3 (ACKR3)” (J Med Chem, 2018).

Structures are written as SMILES. Bounds are passed on as bounds.

The target in test [1] is C-X-C chemokine receptor type 4 (Homo sapiens, UniProt P61073). Description: Displacement of [125I]SDF-1alpha from CXCR4 (unknown origin) expressed in HEK293 cells after 1 hr by scintillation counting method. Type of test: cell-based. (Displacement assays read how much labelled ligand stays bound in the presence of the test substance.)
For test [2], the target named is Atypical chemokine receptor 3 (Homo sapiens, UniProt P25106). Description: Displacement of [125I]SDF-1alpha from ACKR3 (unknown origin) expressed in CHO cells after 1 hr by scintillation counting method. Type of test: cell-based.
Atypical chemokine receptor 3, sequence (P25106 whole entry): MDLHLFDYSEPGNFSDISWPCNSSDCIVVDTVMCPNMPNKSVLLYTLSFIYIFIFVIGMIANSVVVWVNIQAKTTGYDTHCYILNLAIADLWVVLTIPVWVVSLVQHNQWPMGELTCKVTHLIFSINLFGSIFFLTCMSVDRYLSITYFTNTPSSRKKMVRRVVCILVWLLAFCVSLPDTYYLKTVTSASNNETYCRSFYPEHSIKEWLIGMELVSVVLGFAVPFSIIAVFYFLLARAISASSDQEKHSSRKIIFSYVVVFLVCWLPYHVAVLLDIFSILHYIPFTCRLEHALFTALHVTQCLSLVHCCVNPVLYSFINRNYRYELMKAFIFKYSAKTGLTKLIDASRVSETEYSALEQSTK

C-X-C chemokine receptor type 4, sequence (P61073 whole entry): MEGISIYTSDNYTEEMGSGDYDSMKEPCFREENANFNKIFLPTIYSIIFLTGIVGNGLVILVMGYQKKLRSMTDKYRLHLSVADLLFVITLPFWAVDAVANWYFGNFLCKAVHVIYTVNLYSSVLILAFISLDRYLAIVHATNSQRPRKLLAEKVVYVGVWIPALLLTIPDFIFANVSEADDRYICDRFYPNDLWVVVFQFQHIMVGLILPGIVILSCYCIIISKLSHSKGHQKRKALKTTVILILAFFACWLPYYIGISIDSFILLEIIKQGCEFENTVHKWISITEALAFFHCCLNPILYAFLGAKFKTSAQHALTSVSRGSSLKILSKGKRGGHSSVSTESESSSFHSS

A word on the IC50: it is the concentration at which inhibition is half-maximal. A lower IC50 goes with greater potency. With `CC(C)C[C@H]1C(=O)N[C@H](Cc2ccc(O)cc2)C(=O)N[C@@H](CCCNC(=N)N)C(=O)N(C)[C@@H](CCCNC(N)=O)C(=O)N[C@@H](Cc2ccc3ccccc3c2)C(=O)N1C`, the IC50 in test [1] was greater than 30 µM; in test [2] it was 1.9 µM.
On to `CN1C(=O)[C@H](CCCNC(=N)N)NC(=O)[C@@H](Cc2ccc(O)cc2)NC(=O)[C@H](Cc2csc3ccccc23)N(C)C(=O)[C@H](Cc2ccc3ccccc3c2)NC(=O)[C@@H]1CCCNC(N)=O`, for which the values for the IC50 in test [1] and in test [2] were greater than 30 µM and 1 µM, respectively.
The corresponding values for `CC[C@H](C)[C@H]1C(=O)N[C@H](Cc2ccc(O)cc2)C(=O)N[C@@H](CCCNC(=N)N)C(=O)N(C)[C@@H](CCCNC(N)=O)C(=O)N[C@@H](Cc2ccc3ccccc3c2)C(=O)N1C` are greater than 30 µM and 2.2 µM.
As to `CN1C(=O)[C@H](CCCNC(=N)N)NC(=O)[C@@H](Cc2ccc(C(=O)c3ccccc3)cc2)NC(=O)[C@@H]2CCCN2C(=O)[C@H](Cc2ccc3ccccc3c2)NC(=O)[C@@H]1CCCNC(N)=O`, the IC50 in test [1] is greater than 30 µM; in test [2], 0.72 µM.
For `CN1C(=O)[C@H](CCCNC(=N)N)NC(=O)[C@@H](Cc2ccc(O)cc2)NC(=O)[C@@H]2CCCN2C(=O)[C@H](Cc2ccc3ccccc3c2)NC(=O)[C@@H]1CC(N)=O`, the IC50 in test [1] is greater than 30 µM; in test [2], 4.1 µM.
As for `CN1C(=O)[C@H](CCC(N)=O)NC(=O)[C@@H](Cc2ccc(O)cc2)NC(=O)[C@@H]2CCCN2C(=O)[C@H](Cc2ccc3ccccc3c2)NC(=O)[C@@H]1CCCNC(=N)N`, the IC50 in test [1] is greater than 30 µM; in test [2], 9.5 µM.
The corresponding values for `CN1C(=O)[C@H](CCCNC(=N)N)NC(=O)[C@@H](Cc2csc3ccccc23)NC(=O)[C@@H]2CCCN2C(=O)[C@H](Cc2ccc3ccccc3c2)NC(=O)[C@@H]1CCCNC(N)=O` are greater than 30 µM and 0.54 µM.
The corresponding values for `CN1C(=O)[C@H](CCCNC(=N)N)NC(=O)[C@@H](Cc2ccc(Cl)cc2)NC(=O)[C@@H]2CCCN2C(=O)[C@H](Cc2ccc3ccccc3c2)NC(=O)[C@@H]1CCCNC(N)=O` are greater than 30 µM and 0.79 µM.
`CN1C(=O)[C@H](CCCNC(=N)N)NC(=O)[C@@H](Cc2ccc(O)cc2)NC(=O)[C@H](Cc2ccc(-c3ccccc3)cc2)N(C)C(=O)[C@H](Cc2ccc3ccccc3c2)NC(=O)[C@@H]1CCCNC(N)=O`: the values for the IC50 in test [1] and in test [2] were greater than 30 µM and 4 µM, respectively.
Consider `CN1C(=O)[C@H](CCCNC(=N)N)NC(=O)[C@@H](Cc2ccc(O)cc2)NC(=O)[C@H](Cc2c[nH]c3ccccc23)NC(=O)[C@H](Cc2ccc3ccccc3c2)NC(=O)[C@@H]1CCCNC(N)=O`, for which the IC50 in test [1] is greater than 30 µM; in test [2], 0.85 µM.
As to `CN1C(=O)[C@H](CCCNC(=N)N)NC(=O)[C@@H](Cc2ccc(O)cc2)NC(=O)[C@@H]2Cc3ccccc3N2C(=O)[C@H](Cc2ccc3ccccc3c2)NC(=O)[C@@H]1CCCNC(N)=O`, the results for the IC50 in test [1] and in test [2] were greater than 30 µM and 0.19 µM, respectively.
As for `CN1C(=O)[C@H](CCCNC(=N)N)NC(=O)[C@@H](Cc2ccc(O)cc2)NC(=O)[C@@H]2CCCN2C(=O)[C@H](Cc2ccc3ccccc3c2)NC(=O)[C@@H]1CCC(N)=O`, the IC50 in test [1] was greater than 30 µM; in test [2], 5.8 µM.
As to `CN1C(=O)[C@H](CCCNC(=N)N)NC(=O)[C@@H](Cc2ccc(O)cc2)NC(=O)[C@H](Cc2c[nH]c3ccccc23)N(C)C(=O)[C@H](Cc2ccc3ccccc3c2)NC(=O)[C@@H]1CCCNC(N)=O`, the values for the IC50 in test [1] and in test [2] were 10 µM and 0.52 µM, respectively.
`CN1C(=O)[C@H](CCCNC(=N)N)NC(=O)[C@@H](Cc2ccc(O)cc2)NC(=O)[C@@H]2Cc3ccccc3CN2C(=O)[C@H](Cc2ccc3ccccc3c2)NC(=O)[C@@H]1CCCNC(N)=O`: the 50% inhibitory concentration (IC50) was greater than 30 µM in test [1] and 4.2 µM in test [2].
For the compound `CN1C(=O)[C@H](CCCCNC(=N)N)NC(=O)[C@@H](Cc2ccccc2F)NC(=O)[C@H](Cc2cccc3ccccc23)N(C)C(=O)[C@H](Cc2ccc3ccccc3c2)NC(=O)[C@@H]1CCCCNC(=N)N`, the IC50 in test [2] was 0.45 µM.
